From patent US20110071108A1, “Beta-Cyclodextrin Derivatives as Antibacterial Agents” (Pinnacle Pharmaceuticals, Inc., priority 2005, published 2011)

Key:
Test in all cases: Bacterial panel testing, MIC by broth microdilution
Assay type in all cases: cell-based
Details in all cases: 20-24 hours growth
Pseudomonas aeruginosa = test system: Pseudomonas aeruginosa
Outline: (§1)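 Twofold broth microdilution: compound, prepared at 10 μg/ml in DMSO, serially diluted left to right in inoculated Mueller-Hinton or Brain Heart infusion media. Inoculum from 2-4 h cultures at 37° C, standardized to McFarland density. Plates sealed and grown 20-24 h, then clear wells scored.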

Enterococcus faecium = test system: Enterococcus faecium
Outline: as §1

Staphylococcus aureus = test system: Staphylococcus aureus
Outline: as §1

Eschericia coli = test system: Eschericia coli
Outline: as §1

Salmonella choleraesuis = test system: Salmonella choleraesuis
Outline: as §1

Bacillus atrophaeus = test system: Bacillus atrophaeus
Outline: as §1

O[C@@H]1[C@@H](O)[C@H]2O[C@H]3[C@H](O)[C@@H](O)[C@@H](O[C@H]4[C@H](O)[C@@H](O)[C@@H](O[C@H]5[C@H](O)[C@@H](O)[C@@H](O[C@H]6[C@H](O)[C@@H](O)[C@@H](O[C@H]7[C@H](O)[C@@H](O)[C@@H](O[C@H]8[C@H](O)[C@@H](O)[C@@H](O[C@@H]1[C@@H](Cn1ccnc1)O2)O[C@@H]8Cn1ccnc1)O[C@@H]7Cn1ccnc1)O[C@@H]6Cn1ccnc1)O[C@@H]5Cn1ccnc1)O[C@@H]4Cn1ccnc1)O[C@@H]3Cn1ccnc1
>200 µg/mL: MIC PA (Pseudomonas aeruginosa) | MIC EF (Enterococcus faecium) | MIC SA (Staphylococcus aureus) | MIC EC (Eschericia coli) | MIC SC (Salmonella choleraesuis) | MIC BA (Bacillus atrophaeus)

OCCCNC[C@H]1O[C@@H]2O[C@H]3[C@H](O)[C@@H](O)[C@@H](O[C@H]4[C@H](O)[C@@H](O)[C@@H](O[C@H]5[C@H](O)[C@@H](O)[C@@H](O[C@H]6[C@H](O)[C@@H](O)[C@@H](O[C@H]7[C@H](O)[C@@H](O)[C@@H](O[C@H]8[C@H](O)[C@@H](O)[C@@H](O[C@H]1[C@H](O)[C@H]2O)O[C@@H]8CNCCCO)O[C@@H]7CNCCCO)O[C@@H]6CNCCCO)O[C@@H]5CNCCCO)O[C@@H]4CNCCCO)O[C@@H]3CNCCCO
>200 µg/mL: MIC PA (Pseudomonas aeruginosa) | MIC EF (Enterococcus faecium) | MIC SA (Staphylococcus aureus) | MIC EC (Eschericia coli) | MIC SC (Salmonella choleraesuis) | MIC BA (Bacillus atrophaeus)

CN(C)CCNC[C@H]1O[C@@H]2O[C@H]3[C@H](O)[C@@H](O)[C@@H](O[C@H]4[C@H](O)[C@@H](O)[C@@H](O[C@H]5[C@H](O)[C@@H](O)[C@@H](O[C@H]6[C@H](O)[C@@H](O)[C@@H](O[C@H]7[C@H](O)[C@@H](O)[C@@H](O[C@H]8[C@H](O)[C@@H](O)[C@@H](O[C@H]1[C@H](O)[C@H]2O)O[C@@H]8CNCCN(C)C)O[C@@H]7CNCCN(C)C)O[C@@H]6CNCCN(C)C)O[C@@H]5CNCCN(C)C)O[C@@H]4CNCCN(C)C)O[C@@H]3CNCCN(C)C
>200 µg/mL: MIC PA (Pseudomonas aeruginosa) | MIC EF (Enterococcus faecium) | MIC SA (Staphylococcus aureus) | MIC EC (Eschericia coli) | MIC SC (Salmonella choleraesuis) | MIC BA (Bacillus atrophaeus)

O[C@@H]1[C@@H](O)[C@H]2O[C@H]3[C@H](O)[C@@H](O)[C@@H](O[C@H]4[C@H](O)[C@@H](O)[C@@H](O[C@H]5[C@H](O)[C@@H](O)[C@@H](O[C@H]6[C@H](O)[C@@H](O)[C@@H](O[C@H]7[C@H](O)[C@@H](O)[C@@H](O[C@H]8[C@H](O)[C@@H](O)[C@@H](O[C@@H]1[C@@H](CN1CCOCC1)O2)O[C@@H]8CN1CCOCC1)O[C@@H]7CN1CCOCC1)O[C@@H]6CN1CCOCC1)O[C@@H]5CN1CCOCC1)O[C@@H]4CN1CCOCC1)O[C@@H]3CN1CCOCC1
>200 µg/mL: MIC PA (Pseudomonas aeruginosa) | MIC EF (Enterococcus faecium) | MIC SA (Staphylococcus aureus) | MIC EC (Eschericia coli) | MIC SC (Salmonella choleraesuis) | MIC BA (Bacillus atrophaeus)

Oc1ccc(NC[C@H]2O[C@@H]3O[C@H]4[C@H](O)[C@@H](O)[C@@H](O[C@H]5[C@H](O)[C@@H](O)[C@@H](O[C@H]6[C@H](O)[C@@H](O)[C@@H](O[C@H]7[C@H](O)[C@@H](O)[C@@H](O[C@H]8[C@H](O)[C@@H](O)[C@@H](O[C@H]9[C@H](O)[C@@H](O)[C@@H](O[C@H]2[C@H](O)[C@H]3O)O[C@@H]9CNc2ccc(O)cc2)O[C@@H]8CNc2ccc(O)cc2)O[C@@H]7CNc2ccc(O)cc2)O[C@@H]6CNc2ccc(O)cc2)O[C@@H]5CNc2ccc(O)cc2)O[C@@H]4CNc2ccc(O)cc2)cc1
>200 µg/mL: MIC PA (Pseudomonas aeruginosa) | MIC EF (Enterococcus faecium) | MIC SA (Staphylococcus aureus) | MIC EC (Eschericia coli) | MIC SC (Salmonella choleraesuis) | MIC BA (Bacillus atrophaeus)

Cc1c(NC[C@H]2O[C@@H]3O[C@H]4[C@H](O)[C@@H](O)[C@@H](O[C@H]5[C@H](O)[C@@H](O)[C@@H](O[C@H]6[C@H](O)[C@@H](O)[C@@H](O[C@H]7[C@H](O)[C@@H](O)[C@@H](O[C@H]8[C@H](O)[C@@H](O)[C@@H](O[C@H]9[C@H](O)[C@@H](O)[C@@H](O[C@H]2[C@H](O)[C@H]3O)O[C@@H]9CNc2c(C)n(C)n(-c3ccccc3)c2=O)O[C@@H]8CNc2c(C)n(C)n(-c3ccccc3)c2=O)O[C@@H]7CNc2c(C)n(C)n(-c3ccccc3)c2=O)O[C@@H]6CNc2c(C)n(C)n(-c3ccccc3)c2=O)O[C@@H]5CNc2c(C)n(C)n(-c3ccccc3)c2=O)O[C@@H]4CNc2c(C)n(C)n(-c3ccccc3)c2=O)c(=O)n(-c2ccccc2)n1C
>200 µg/mL: MIC PA (Pseudomonas aeruginosa) | MIC EF (Enterococcus faecium) | MIC SA (Staphylococcus aureus) | MIC EC (Eschericia coli) | MIC SC (Salmonella choleraesuis) | MIC BA (Bacillus atrophaeus)

O=C(C1CCCO1)N1CCN(CC2OC3OC4C(CN5CCN(C(=O)C6CCCO6)CC5)OC(OC5C(CN6CCN(C(=O)C7CCCO7)CC6)OC(OC6C(CN7CCN(C(=O)C8CCCO8)CC7)OC(OC7C(CN8CCN(C(=O)C9CCCO9)CC8)OC(OC8C(CN9CCN(C(=O)C%10CCCO%10)CC9)OC(OC9C(CN%10CCN(C(=O)C%11CCCO%11)CC%10)OC(OC2C(O)C3O)C(O)C9O)C(O)C8O)C(O)C7O)C(O)C6O)C(O)C5O)C(O)C4O)CC1 (stereo not drawn)
>200 µg/mL: MIC PA (Pseudomonas aeruginosa) | MIC EF (Enterococcus faecium) | MIC SA (Staphylococcus aureus) | MIC EC (Eschericia coli) | MIC SC (Salmonella choleraesuis) | MIC BA (Bacillus atrophaeus)

OC1C2OC(CNc3ccccc3)C(OC3OC(CNc4ccccc4)C(OC4OC(CNc5ccccc5)C(OC5OC(CNc6ccccc6)C(OC6OC(CNc7ccccc7)C(OC7OC(CNc8ccccc8)C(OC8OC(CNc9ccccc9)C(O2)C(O)C8O)C(O)C7O)C(O)C6O)C(O)C5O)C(O)C4O)C(O)C3O)C1O (stereo not drawn)
>200 µg/mL: MIC PA (Pseudomonas aeruginosa) | MIC EF (Enterococcus faecium) | MIC SA (Staphylococcus aureus) | MIC EC (Eschericia coli) | MIC SC (Salmonella choleraesuis) | MIC BA (Bacillus atrophaeus)

CCCCCCCCCCCC[N+]12CC[N+](CC(=O)NCC3OC4OC5C(CNC(=O)C[N+]67CC[N+](CCCCCCCCCCCC)(CC6)CC7)OC(OC6C(CNC(=O)C[N+]78CC[N+](CCCCCCCCCCCC)(CC7)CC8)OC(OC7C(CNC(=O)C[N+]89CC[N+](CCCCCCCCCCCC)(CC8)CC9)OC(OC8C(CNC(=O)C[N+]9%10CC[N+](CCCCCCCCCCCC)(CC9)CC%10)OC(OC9C(CNC(=O)C[N+]%10%11CC[N+](CCCCCCCCCCCC)(CC%10)CC%11)OC(OC%10C(CNC(=O)C[N+]%11%12CC[N+](CCCCCCCCCCCC)(CC%11)CC%12)OC(OC3C(O)C4O)C(O)C%10O)C(O)C9O)C(O)C8O)C(O)C7O)C(O)C6O)C(O)C5O)(CC1)CC2 (stereo not drawn)
>200 µg/mL: MIC PA (Pseudomonas aeruginosa) | MIC EF (Enterococcus faecium) | MIC SA (Staphylococcus aureus) | MIC EC (Eschericia coli) | MIC SC (Salmonella choleraesuis) | MIC BA (Bacillus atrophaeus)

OC1C2OC(CN3CCN(c4ccccn4)CC3)C(OC3OC(CN4CCN(c5ccccn5)CC4)C(OC4OC(CN5CCN(c6ccccn6)CC5)C(OC5OC(CN6CCN(c7ccccn7)CC6)C(OC6OC(CN7CCN(c8ccccn8)CC7)C(OC7OC(CN8CCN(c9ccccn9)CC8)C(OC8OC(CN9CCN(c%10ccccn%10)CC9)C(O2)C(O)C8O)C(O)C7O)C(O)C6O)C(O)C5O)C(O)C4O)C(O)C3O)C1O (stereo not drawn)
>200 µg/mL: MIC PA (Pseudomonas aeruginosa) | MIC EF (Enterococcus faecium) | MIC SA (Staphylococcus aureus) | MIC EC (Eschericia coli) | MIC SC (Salmonella choleraesuis) | MIC BA (Bacillus atrophaeus)

Cl.Cl.Cl.Cl.Cl.Cl.NCCCSCC1OC2OC3C(CSCCCN)OC(OC4C(CSCCCN)OC(OC5C(CSCCCN)OC(OC6C(CSCCCN)OC(OC7C(CSCCCN)OC(OC1C(O)C2O)C(O)C7O)C(O)C6O)C(O)C5O)C(O)C4O)C(O)C3O (stereo not drawn)
>200 µg/mL: MIC PA (Pseudomonas aeruginosa) | MIC EF (Enterococcus faecium) | MIC SA (Staphylococcus aureus) | MIC EC (Eschericia coli) | MIC SC (Salmonella choleraesuis) | MIC BA (Bacillus atrophaeus)

COCCNCC1OC2OC3C(CNCCOC)OC(OC4C(CNCCOC)OC(OC5C(CNCCOC)OC(OC6C(CNCCOC)OC(OC7C(CNCCOC)OC(OC8C(CNCCOC)OC(OC1C(O)C2O)C(O)C8O)C(O)C7O)C(O)C6O)C(O)C5O)C(O)C4O)C(O)C3O (stereo not drawn)
>200 µg/mL: MIC PA (Pseudomonas aeruginosa) | MIC EF (Enterococcus faecium) | MIC SA (Staphylococcus aureus) | MIC EC (Eschericia coli) | MIC SC (Salmonella choleraesuis) | MIC BA (Bacillus atrophaeus)

CC(=O)NCC1OC2OC3C(CNC(C)=O)OC(OC4C(CNC(C)=O)OC(OC5C(CNC(C)=O)OC(OC6C(CNC(C)=O)OC(OC7C(CNC(C)=O)OC(OC8C(CNC(C)=O)OC(OC1C(O)C2O)C(O)C8O)C(O)C7O)C(O)C6O)C(O)C5O)C(O)C4O)C(O)C3O (stereo not drawn)
>200 µg/mL: MIC PA (Pseudomonas aeruginosa) | MIC EF (Enterococcus faecium) | MIC SA (Staphylococcus aureus) | MIC EC (Eschericia coli) | MIC SC (Salmonella choleraesuis) | MIC BA (Bacillus atrophaeus)
